# Read-outs that look alike come from different tables or passages of the source.
# Assays:
# [1] = target: T1, P2X7 receptor (Homo sapiens, UniProt Q99572); experiment: IL-1β release assay in differentiated THP-1 cells stimulated with BzATP (Example 9); assay type: cell-based
# T1 construct: host or cells: THP-1 cells differentiated with LPS and IFN-γ
# T1 sequence (Q99572 1-595): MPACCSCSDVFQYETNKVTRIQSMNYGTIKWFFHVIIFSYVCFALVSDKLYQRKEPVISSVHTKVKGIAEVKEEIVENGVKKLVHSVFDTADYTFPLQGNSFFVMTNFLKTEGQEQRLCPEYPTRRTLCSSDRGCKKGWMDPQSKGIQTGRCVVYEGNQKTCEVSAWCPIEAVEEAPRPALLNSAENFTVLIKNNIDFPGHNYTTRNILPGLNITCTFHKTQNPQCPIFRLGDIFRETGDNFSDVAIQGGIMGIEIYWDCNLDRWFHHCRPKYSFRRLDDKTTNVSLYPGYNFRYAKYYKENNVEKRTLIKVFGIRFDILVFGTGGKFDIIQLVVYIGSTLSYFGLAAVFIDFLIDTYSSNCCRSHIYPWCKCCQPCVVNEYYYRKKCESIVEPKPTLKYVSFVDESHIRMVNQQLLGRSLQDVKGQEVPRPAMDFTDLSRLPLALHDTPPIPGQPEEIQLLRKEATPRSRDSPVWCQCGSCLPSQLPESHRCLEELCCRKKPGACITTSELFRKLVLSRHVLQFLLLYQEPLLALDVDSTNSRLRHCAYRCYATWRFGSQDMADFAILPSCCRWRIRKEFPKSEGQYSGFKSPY
# How it was run: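 THP-1 cells differentiated 16 h with 100 ng/mL LPS and 100 ng/mL IFN-γ, primed 2 h with fresh LPS, pretreated 30 min with compound, then stimulated 45 min with 250 uM BzATP (final). Supernatant IL-1β measured by ELISA; background-adjusted percent inhibition fitted to a four-parameter logistic for IC50.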
# [2] = Pharmacokinetic evaluation following intravenous and oral administration in rats (oral bioavailability); assay type: in vivo, rat; conditions: male Sprague-Dawley rats, PO 1 to 5 mg/kg vs IV 1 mg/kg, AUCinf dose-normalized
# Protocol: Male Sprague-Dawley rats are acclimatized for at least 24 hours prior to experiment initiation. During acclimation period, all animals receive food and water ad libitum. However, food but not water is removed from the animal's cages at least 12 hours before initiation of the experiment. During the first 3 hours of experimentation, the animals receive only water ad libitum. At least three animals each are tested for intravenous and oral dosage. For intravenous formulation, compounds were dissolved (0.25 to 1 mg/mL) in a mixture of 3% dimethyl sulfoxide, 40% PEG 400 and the rest percentage of 40% Captisol in water (w/v). The animals are weighed before dosing. The determined body weight is used to calculate the dose volume for each animal.
# Dose volume (mL/kg)=1 mg/kg/formulation concentration (mg/mL)
# In instances where the formulation concentrations were less than 0.5 mg/mL, the dosing volume is about 2 mL/kg.
# PO rats are typically dosed through oral gavage following the same dose volume formula as IV to achieve a dose level of 1 to 5 mg/kg. […] About 250 uL of blood is obtained at each time point from the animal. Equal volumes of 0.9% normal saline are replaced to prevent dehydration. The whole blood samples are maintained on ice until centrifugation. Blood samples are then centrifuged at 14,000 rpm for 10 minutes at 4° C. and the upper plasma layer transferred into a clean vial and stored at −80° C. The resulting plasma samples are then analyzed by liquid chromatography-tandem mass spectrometry. Following the measurement of plasma samples and dosing solutions, plasma concentration-time curve is plotted. Plasma exposure is calculated as the area under the concentration-time curve extrapolated to time infinite (AUinf). The AUCinf is averaged and the oral bioavailability (% F) for individual animal is calculated as:
# AUCinf (PO)/AUCinf (IV), normalized to their respective dose levels. The % F is reported as the mean % F of all animals dosed orally with the compound of the invention at the specified level (see Table 4 below).
# For the purpose of Table 4, oral bioavailability of each compound is expressed as follows: […]
# [3] = in vitro; conditions: human, microsomes, pH 7.4
# Protocol: (§1) Test compounds (1 μM) are incubated with 3.3 mM MgCl2 and 0.78 mg/mL HLM (HL101) in 100 mM potassium phosphate buffer (pH 7.4) at 37° C. on the 96-deep well plate. The reaction mixture is split into two groups, a non-P450 and a P450 group. NADPH is only added to the reaction mixture of the P450 group. An aliquot of samples of P450 group is collected at 0, 10, 30, and 60 min time point, where 0 min time point indicated the time when NADPH is added into the reaction mixture of P450 group. […] Collected aliquots are extracted with acetonitrile solution containing an internal standard. […] The compound concentration in supernatant is measured by LC/MS/MS system.
# (§2) The half-life value is obtained by plotting the natural logarithm of the peak area ratio of compounds/internal standard versus time. The slope of the line of best fit through the points yields the rate of metabolism (k). This is converted to a half-life value using following equations:
# [4] = Determination of aqueous (kinetic) solubility; assay type: physicochemical; conditions: aqueous buffer, kinetic from dmso stock, buffer pH 7.4
# Protocol: The mixture was vortexed for 1 hour and equilibrated overnight at room temperature. The mixture was filtered through a saturated filter and the filtrate was analyzed by LC/MS/MS.
# For the purpose of Table 5, solubility of each compound is expressed as follows: […]
# [5] = Half-life in human liver microsomes (HLM); conditions: pH 7.4
# Protocol: as §1, §2
# [6] = THP-1, read-out: IL-1β % Inhib. @ 0.3 or 0.1 uM
# [7] = 0.3 μM compound, differentiated THP-1 cells, BzATP 250 uM, "+" symbols, read-out: IL-1β % Inhib. @ 0.3 or 0.1 uM
Structure (SMILES),"inhibition at 0.3 µM [1, 6] [%]","IC50 ([1]; THP-1 cells, BzATP 250 uM, IL-1β by ELISA) [nM]",Oral Bioavailability F (%) [2],half-life [3] [h],solubility [4] [µM],"inhibition at 0.3 µM [1, 7] [%]",half-life at 1 μM [5] [h]
"Cc1ccc2c(=O)n([C@H](C)CO)ccc2c1NC(=O)Cc1ccc(C(F)(F)F)c(F)c1 [Compound 393, N-[6-Methyl-2-((R)-2-hydroxy-1-methyl-ethyl)-1-oxo-1,2-dihydro-isoquinolin-5-yl]-2-(3-fluoro-4-trifluoromethyl-phenyl)-acetamide]",> 76,5.38,+++ (51-75% F),1.45,> 75,,
O=C(Cc1ccc(C(F)(F)F)c(F)c1)Nc1c(Cl)ccc2c(=O)n(CCO)ccc12 [Compound 383],,,++++ (>75% F),3.65,< 25,> 76,
"C[C@H](C(N)=O)n1ccc2c(NC(=O)Cc3ccc(C(F)(F)F)cc3)c(Cl)ccc2c1=O [Compound 316, (R)-2-{6-Chloro-1-oxo-5-[2-(4-trifluoromethyl-phenyl)-acetylamino]-1H-isoquinolin-2-yl}-propionamide]",> 76,,++ (26-50% F),,< 25,,3.25
C[C@H](C(N)=O)n1ccc2c(NC(=O)[C@H](C)c3ccc(Cl)c(Cl)c3)cccc2c1=O [Compound 269],,,++ (26-50% F),,26 to 50,> 76,0.93
